Earlier results, collected in PubChem BioAssay AID1259409 (Chemical Carcinogenesis Research Information System (CCRIS), 2018).

Test system: rodent chemically induced tumor inhibition, incidence and multiplicity
Assay: CCRIS tumor inhibitor studies
Conditions: Route [Inhibitor]: ORAL

Row | SMILES | tumour outcome (control, treated, inhibition, significance) (Carcinogen: N-NITROSOBIS(2-HYDROXYPROPYL)AMINE, 53609-64-6, Dose [Inhibitor]: 0, 0.015% IN DIET FOR 8 WK BEGINNING POST CARCINOGEN TREATMENT (STUDY DURATION: 20 WK), Species: RAT, Strain/Sex: WISTAR/MALE, Target Tissue: Type of Lesion: LUNG: ADENOCARCINOMA, Dose [Carcinogen]: 2,000 PPM IN DRINKING WATER FOR 12 WK, Promoter: NONE) | tumour outcome (control, treated, inhibition, significance) (Carcinogen: N-NITROSOBIS(2-HYDROXYPROPYL)AMINE, 53609-64-6, Dose [Inhibitor]: 0, 0.015% IN DIET FOR 8 WK BEGINNING POST CARCINOGEN TREATMENT (STUDY DURATION: 20 WK), Species: RAT, Strain/Sex: WISTAR/MALE, Target Tissue: Type of Lesion: LUNG: SQUAMOUS CELL CARCINOMA, Dose [Carcinogen]: 2,000 PPM IN DRINKING WATER FOR 12 WK, Promoter: NONE) | tumour outcome (control, treated, inhibition, significance) (Carcinogen: N-NITROSOBIS(2-OXOPROPYL)AMINE [60599-38-4], Dose [Inhibitor]: 10 MG/KG BW ORALLY 3X A WEEK FOR 18 WK (STUDY DURATION: 22 WK), Species: HAMSTER, Strain/Sex: SYRIAN GOLDEN/FEMALE WITH BILIOENTEROSTOMY, Target Tissue: Type of Lesion: BILE DUCT: ADENOMA, Dose [Carcinogen]: 10 MG/KG BW EVERY 2 WK FOR 18 WK (STUDY DURATION: 22 WK)) | tumour outcome (control, treated, inhibition, significance) (Carcinogen: N-NITROSOBIS(2-OXOPROPYL)AMINE [60599-38-4], Dose [Inhibitor]: 10 MG/KG BW ORALLY 3X A WEEK FOR 18 WK (STUDY DURATION: 22 WK), Species: HAMSTER, Strain/Sex: SYRIAN GOLDEN/FEMALE WITH BILIOENTEROSTOMY, Target Tissue: Type of Lesion: BILE DUCT: CARCINOMA, Dose [Carcinogen]: 10 MG/KG BW EVERY 2 WK FOR 18 WK (STUDY DURATION: 22 WK)) | tumour outcome (control, treated, inhibition, significance) (Carcinogen: 7,12-DIMETHYLBENZ[A]ANTHRACENE, 57-97-6, Dose [Inhibitor]: 1% IN 20% PROTEIN DIET AND 0.5% IN DRINKING WATER (STUDY DURATION: 150 D), Species: RAT, Strain/Sex: STRAIN-CB/FEMALE, Target Tissue: Type of Lesion: MAMMARY GLAND: TUMOR, Dose [Carcinogen]: 15 MG IN 1 ML ARACHIS OIL TWICE 14 D APART, Promoter: NONE USED) | tumour outcome (control, treated, inhibition, significance) (Carcinogen: 7,12-DIMETHYLBENZ[A]ANTHRACENE, 57-97-6, Dose [Inhibitor]: 1.5% IN 20% PROTEIN DIET (STUDY DURATION: 100 D), Species: RAT, Strain/Sex: STRAIN-CB/FEMALE, Target Tissue: Type of Lesion: MAMMARY GLAND: TUMOR, Dose [Carcinogen]: 15 MG IN 1 ML ARACHIS OIL THREE DOSES GIVEN 1/2 WK, Promoter: NONE USED) | tumour outcome (control, treated, inhibition, significance) (Carcinogen: NONE USED, Dose [Inhibitor]: 0.4% IN DRINKING WATER, STARTING AT 7-9 WK OF AGE AND CONTINUING FOR DURATION OF STUDY (STUDY DURATION: 10-12 MO), Species: MOUSE, Strain/Sex: STRAIN-A/MALE, FEMALE, Target Tissue: Type of Lesion: LUNG: ADENOMA, Promoter: NONE USED)
1 | CCc1cccc2c3c([nH]c12)C(CC)(CC(=O)O)OCC3 (configuration not stated) | 60%, 46%, 23%, not calculated | 20%, 0%, 100%, not calculated | 15/17 (88%), 11/18 (61%), 31%, not significant | 15/17 (88%), 6/18 (33%), 63%, p< 0.01 | – | – | –
2 | Cc1c[nH]c(=O)[nH]c1=O | – | – | – | – | 11/11 (100%), 6/11 (55%), 45%, not calculated | 18/18 (100%), 16/20 (80%), 20%, not calculated | 48%, 17%, 65%, p 0.02
